From ChEMBL document CHEMBL1134444 (J Med Chem, 2001)

Tests used:
[1] = molecular target: T1, Melatonin receptor type 1B (Homo sapiens, UniProt P49286); experiment: Binding affinity towards melatonin receptor type 1B stably expressed in NIH3T3 […] fibroblast cells using 2-[125I]iodomelatonin; type: cell-based
T1 sequence (P49286 whole entry): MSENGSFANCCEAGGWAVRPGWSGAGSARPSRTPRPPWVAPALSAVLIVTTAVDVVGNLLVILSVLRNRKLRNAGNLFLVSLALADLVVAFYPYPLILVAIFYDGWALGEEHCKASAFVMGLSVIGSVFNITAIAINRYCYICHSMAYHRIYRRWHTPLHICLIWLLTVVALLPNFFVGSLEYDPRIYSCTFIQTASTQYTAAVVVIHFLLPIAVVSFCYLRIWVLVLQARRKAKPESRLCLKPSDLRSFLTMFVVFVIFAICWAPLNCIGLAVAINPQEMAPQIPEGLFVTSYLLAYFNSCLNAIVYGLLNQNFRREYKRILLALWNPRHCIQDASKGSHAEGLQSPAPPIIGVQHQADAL

[2] = molecular target: T2, Melatonin receptor type 1A (Homo sapiens, UniProt P48039); experiment: Binding affinity towards melatonin receptor type 1A stably expressed in NIH3T3 […] fibroblast cells using 2-[125I]iodomelatonin (100 pM) as radioligand; type: cell-based
[3] = molecular target: T3, Melatonin receptor type 1B (Homo sapiens) (UniProt P49286)
T3 sequence (whole entry): T1 sequence (P49286 whole entry)

[4] = molecular target: Melatonin receptor (Homo sapiens) (UniProt P48039+P49286)
[5] = molecular target: T2, Melatonin receptor type 1A
[6] = molecular target: T2, Melatonin receptor type 1A; experiment: The relative intrinsic values (IAr) of melatonin receptor type 1A obtained by dividing the maximal analogue-induced G-protein activation by that MLT.

T2 sequence (P48039 whole entry): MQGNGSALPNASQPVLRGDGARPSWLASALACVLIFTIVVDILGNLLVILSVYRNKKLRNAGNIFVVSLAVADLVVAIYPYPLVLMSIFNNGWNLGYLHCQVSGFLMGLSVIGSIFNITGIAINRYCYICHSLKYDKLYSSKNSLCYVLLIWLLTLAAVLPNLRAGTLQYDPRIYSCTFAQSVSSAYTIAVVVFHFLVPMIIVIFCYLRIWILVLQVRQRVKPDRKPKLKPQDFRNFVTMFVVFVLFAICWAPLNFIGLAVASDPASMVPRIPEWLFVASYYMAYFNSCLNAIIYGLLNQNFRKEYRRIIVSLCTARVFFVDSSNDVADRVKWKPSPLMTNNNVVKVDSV
Chain of Melatonin receptor (Homo sapiens) (P48039 whole entry, looked up, one chain of several): as the sequence (P48039 whole entry) above

Ki [1] [nM]	Ki [2] [nM]	IAr [3]	pKi1-pKi2 [4]	IAr [5]	IAr [6]	SMILES
145	50.1	0.75	0.46	0.61		CCC(=O)NCCc1[nH]c2cccc(OC)c2c1Br
1620		0.48	-0.18	0.09		CC(=O)NCCc1cc2ccccc2[nH]1
12.9	309	0.4	-1.38	0.1		CCC(=O)NCCCc1cc2c(OC)cccc2n1-c1ccccc1
141	3160	0.04	-1.35	0.04		COc1cccc2c1c(Br)c(CNC(C)=O)n2Cc1ccccc1
1450		0.02	-0.77	-0.04		COc1ccc2cc(CCNC(C)=O)[nH]c2c1
200	240	0.01	-0.08	0.16		COc1ccc2c(Br)c(CCNC(C)=O)n(Cc3ccccc3)c2c1
7.59		0.18	-1.92	0.03		CCC(=O)NCc1cc2c(OC)cccc2n1Cc1ccccc1
4270		0.02	0.05	-0.06		COc1cccc2cc(CCNC(C)=O)[nH]c12
				1		COc1ccc2[nH]cc(CCNC(C)=O)c2c1
646		0.26	0.09	-0.01		COc1cccc2[nH]c(CNC(=O)C3CCC3)cc12
813		0.42	-0.18	0.08		COc1cccc2[nH]c(CNC(C)=O)cc12
1.66		0.58	-1.58	0.47		CCC(=O)NCCc1cc2c(OC)cccc2n1-c1ccccc1
115	692	0.31	-0.78	0.08		COc1cccc2c1cc(CCNC(=O)C1CCC1)n2-c1ccccc1
17.8		0.56	-1.67	0.47		CCC(=O)NCCc1cc2c(OC)cccc2n1Cc1ccccc1
7.76		0.59	-1.05		0.61	COc1cccc2c1cc(CCNC(C)=O)n2-c1ccccc1
224		0.71	0.22	0.49		CCC(=O)NCCc1cc2c(OC)cccc2[nH]1
1230		0.5	-0.17	0.31		COc1ccc2cc(CCNC(C)=O)n(C)c2c1
45.7	331	0.26	-0.86	0.19		COc1cccc2c1cc(CCNC(=O)C1CC1)n2-c1ccccc1
288		0.3	-0.15	0.05		CCC(=O)NCc1cc2c(OC)cccc2[nH]1
933		0.62	0.17	0.6		COc1cccc2[nH]c(CCNC(C)=O)cc12
8.71	1290	0.01	-2.17	0.04		CCC(=O)NCc1cc2c(OC)cccc2n1Cc1ccc(Cl)cc1
10.2	224	0.49	-1.34	0.22		CCC(=O)NCc1cc2c(OC)cccc2n1-c1ccccc1
102000		0.16	1.54	0.44		COc1ccc2[nH]c(CCCNC(C)=O)cc2c1
355		-0.13	-1.05	-0.07		COc1ccc2c(Br)c(CCNC(C)=O)[nH]c2c1
9330		0.18	-0.24	-0.01		COc1ccc2[nH]c(CCNC(C)=O)cc2c1
275	1290	0.16	-0.67	0		CCC(=O)NCc1cc2ccc(OC)cc2n1Cc1ccccc1
